Measured values taken from patent publication US20260137701A1, “CHOLESTENOIC ACID (CA) AND A SULFATED DERIVATIVE THEREOF, 3[BETA]-SULFATE-5-CHOLESTENOIC ACID (CA3S), AS ENDOGENOUS EPIGENETIC REGULATORS” (priority 2022, published 2026).
“And” between values parts separate entries of the source, which are not always exact repeats. Equal entries are not always repeated.

Tested on: HepG-2 cells
Assay: Whole genome bisulfite sequencing (WGBS), differentially methylated regions
Assay type: cell-based, human
Conditions: for number of DMRs, whole genome, hyper-methylated / number of DMRs, whole genome, hypo-methylated / number of DMRs, whole genome, total: 20 μM CA vs vehicle
Method: After culturing HepG-2 cells in DMEM medium with HG for 72 hours followed by treating with 20 μM CA for 0, 3, 6, 12, and 24 hours, genomic DNA from 5×10^7 cells were extracted using QIAamp® DNA Mini Kit (QIAGEN, Hilden, Germany). Each sample, 6 μg, was sent to CD Genomics Co., Ltd (New York, USA) for analysis of WGBS. Total RNA was isolated using the Promega SV total RNA isolation system (Madison, WI, USA) with DNase treatment. Each sample, 2 μg, were sent to CD Genomics Co., Ltd (New York, USA) for analysis of RNA sequencing. The same samples, 2 μg, was used for the first-strand cDNA synthesis as recommended by the manufacturer (Invitrogen, Carlsbad, CA). RT-qPCR was performed using SYBR Green as the indicator on ABI 7500 Fast Real-Time PCR System (Applied Biosystems, Foster City, CA). Amplifications of j-actin or GAPDH were used as internal controls. Relative messenger RNA (mRNA) expression was quantified with the comparative cycle threshold (Ct) method using a sutiable primer set and was expressed as 2-ΔΔCt as described previously.
Each sample, 1 μg of genomic DNA was fragmented by sonication to a mean size of approximately 200-400 bp, and subsequently used for WGBS library construction using Acegen Bisulfite-Seq Library Prep Kit (Acegen) following the manufacturer's instructions. The methylated adapter-ligated DNAs were purified using 0.8×Agencourt AMPure™ XP magnetic beads and subjected to bisulfite conversion by ZYMO EZ DNA Methylation-Gold™ Kit (Zymo Research Corporation, CA, USA). The converted DNAs were then amplified using 25 μl KAPA HiFi™ HotStart Uracil+ ReadyMix (2×) and 8-bp index primers with a final concentration of 1 μM each. The constructed WGBS libraries were then analyzed by Agilent 2100 Bioanalyzer and quantified by a Qubit fluorometer with Quant-iT™ dsDNA HS Assay Kit (Invitrogen), and finally sequenced on Illumina® Hiseq X™ Ten sequencer. After the preparation of the library, Qubit 2.0 and Agilent 2100 were used respectively to detect the concentration of the library and the Insert Size, and the effective concentration (>2 nM) of the library was quantitatively determined by Q-PCR to ensure the library quality.
Samples were sequenced using the Illumina® HiSeq sequencing platform. Raw data generated on the sequencing platform contained a small percentage of low-quality data, which was then filtered to get high-quality data. Bsmap software was used to perform alignments of bisulfite-treated reads to a reference genome (GRCh37). Metilene software was used to identify differentially methylated regions (DMRs). DAVID software (website located at david.ncifcrf.gov/) was used to test the statistical enrichment of DMR related genes in the Gene Ontology (GO) and Kyoto Encyclopedia of Genes and Genomes (KEGG) pathways.

CC(CCC[C@@H](C)[C@H]1CC[C@H]2[C@@H]3CC=C4C[C@@H](O)CC[C@]4(C)[C@H]3CC[C@]12C)C(=O)O (stereo partly drawn) [CA, 3β-hydroxy-5-cholestenoic acid]
number of DMRs, whole genome, hyper-methylated (3 hours): 11,818
number of DMRs, whole genome, hypo-methylated (3 hours): 215,747
number of DMRs, whole genome, total (3 hours): 227,565
number of DMRs, whole genome, hyper-methylated (6 hours): 10,537
number of DMRs, whole genome, hypo-methylated (6 hours): 497,685
number of DMRs, whole genome, total (6 hours): 508,222
number of DMRs, whole genome, hyper-methylated (12 hours): 14,658
number of DMRs, whole genome, hypo-methylated (12 hours): 544,916
number of DMRs, whole genome, total (12 hours): 559,574
number of DMRs, whole genome, hyper-methylated (24 hours): 8,808
number of DMRs, whole genome, hypo-methylated (24 hours): 679,051
number of DMRs, whole genome, total (24 hours): 687,859
DMR (Methylation %) ADRA1A promoter region (20 μM CA, 3 h): −30.28%
DMR (Methylation %) ADRA1B promoter region (20 μM CA, 3 h): 0%
DMR (Methylation %) ADRA1 promoter region (20 μM CA, 3 h): −30.28%
DMR (Methylation %) BCL6 promoter region (20 μM CA, 3 h): −20.42%
DMR (Methylation %) CACNA1D promoter region (20 μM CA, 3 h): −55.12%
DMR (Methylation %) CALML3 promoter region (20 μM CA, 3 h): −27.06% and −27.05%
DMR (Methylation %) CALML4 promoter region (20 μM CA, 3 h): −21.08%
DMR (Methylation %) CAMKK2 promoter region (20 μM CA, 3 h): 0%
DMR (Methylation %) COX7B promoter region (20 μM CA, 3 h): −30.9%
DMR (Methylation %) COX8A promoter region (20 μM CA, 3 h): −25.87%
DMR (Methylation %) CPT1C promoter region (20 μM CA, 3 h): −18.8%
DMR (Methylation %) CREB3L4 promoter region (20 μM CA, 3 h): 0%
DMR (Methylation %) CYP1A1 promoter region (20 μM CA, 3 h): −30.07%
DMR (Methylation %) ESR2 promoter region (20 μM CA, 3 h): 0%
DMR (Methylation %) FBP1 promoter region (20 μM CA, 3 h): 0%
DMR (Methylation %) FGF1 promoter region (20 μM CA, 3 h): −54.6%
DMR (Methylation %) FGF8 promoter region (20 μM CA, 3 h): −19.97%
DMR (Methylation %) FGFR2 promoter region (20 μM CA, 3 h): −26.28%
DMR (Methylation %) LDHA promoter region (20 μM CA, 3 h): −29.00%
DMR (Methylation %) LDHAL6A promoter region (20 μM CA, 3 h): 0%
DMR (Methylation %) LDHC promoter region (20 μM CA, 3 h): −20.18%
DMR (Methylation %) LEP promoter region (20 μM CA, 3 h): 0%
DMR (Methylation %) MIR29A promoter region (20 μM CA, 3 h): −15.46%
DMR (Methylation %) MIRLET7B promoter region (20 μM CA, 3 h): 0%
DMR (Methylation %) MTOR promoter region (20 μM CA, 3 h): −20.34%
DMR (Methylation %) NTRK3 promoter region (20 μM CA, 3 h): 0%
DMR (Methylation %) PDHA2 promoter region (20 μM CA, 3 h): 0%
DMR (Methylation %) PDHB promoter region (20 μM CA, 3 h): −21.86%
DMR (Methylation %) PHKG1 promoter region (20 μM CA, 3 h): −15.73%
DMR (Methylation %) PPARG promoter region (20 μM CA, 3 h): 0%
DMR (Methylation %) SDHA promoter region (20 μM CA, 3 h): 0%
DMR (Methylation %) SDHB promoter region (20 μM CA, 3 h): 0%
DMR (Methylation %) SPHK2 promoter region (20 μM CA, 3 h): 0%
DMR (Methylation %) UQCRC1 promoter region (20 μM CA, 3 h): −23.76%
DMR (Methylation %) VDAC2 promoter region (20 μM CA, 3 h): −27.41%
number of DMRs in promoter region, hyper-methylated (20 μM CA, 3 hours): 2,323
number of DMRs in promoter region, hypo-methylated (20 μM CA, 3 hours): 12,431
number of DMRs in promoter region, total (20 μM CA, 3 hours): 14,754
DMR (Methylation %) ADRA1A promoter region (20 μM CA, 6 h): −41.25%
DMR (Methylation %) ADRA1B promoter region (20 μM CA, 6 h): −33.89%
DMR (Methylation %) ADRA1 promoter region (20 μM CA, 6 h): −41.25%
DMR (Methylation %) BCL6 promoter region (20 μM CA, 6 h): −43.30%
DMR (Methylation %) CACNA1D promoter region (20 μM CA, 6 h): −69.06% and −69.10%
DMR (Methylation %) CALML3 promoter region (20 μM CA, 6 h): −47.29%
DMR (Methylation %) CALML4 promoter region (20 μM CA, 6 h): −31.79%
DMR (Methylation %) CAMKK2 promoter region (20 μM CA, 6 h): −37.97%
DMR (Methylation %) COX7B promoter region (20 μM CA, 6 h): −83.31%
DMR (Methylation %) COX8A promoter region (20 μM CA, 6 h): −35.3%
DMR (Methylation %) CPT1A promoter region (20 μM CA, 6 h): −41.69%
DMR (Methylation %) CPT1C promoter region (20 μM CA, 6 h): −34.41%
DMR (Methylation %) CREB3L4 promoter region (20 μM CA, 6 h): −36.38%
DMR (Methylation %) CYP1A1 promoter region (20 μM CA, 6 h): −55.38%
DMR (Methylation %) ESR2 promoter region (20 μM CA, 6 h): −33.80%
DMR (Methylation %) FBP1 promoter region (20 μM CA, 6 h): −39.18%
DMR (Methylation %) FGF1 promoter region (20 μM CA, 6 h): −37.79%
DMR (Methylation %) FGF8 promoter region (20 μM CA, 6 h): −53.29%
DMR (Methylation %) FGFR2 promoter region (20 μM CA, 6 h): −47.13%
DMR (Methylation %) LDHA promoter region (20 μM CA, 6 h): −35.80%
DMR (Methylation %) LDHAL6A promoter region (20 μM CA, 6 h): −38.96%
DMR (Methylation %) LDHC promoter region (20 μM CA, 6 h): −31.45%
DMR (Methylation %) LEP promoter region (20 μM CA, 6 h): −35.18%
DMR (Methylation %) MIR29A promoter region (20 μM CA, 6 h): −32.98%
DMR (Methylation %) MIRLET7B promoter region (20 μM CA, 6 h): −34.85%
DMR (Methylation %) MTOR promoter region (20 μM CA, 6 h): −37.3%
DMR (Methylation %) NTRK3 promoter region (20 μM CA, 6 h): −49.89%
DMR (Methylation %) PDHA2 promoter region (20 μM CA, 6 h): −39.34%
DMR (Methylation %) PDHB promoter region (20 μM CA, 6 h): −42.31%
DMR (Methylation %) PHKG1 promoter region (20 μM CA, 6 h): −41.81%
DMR (Methylation %) PPARG promoter region (20 μM CA, 6 h): −37.32%
DMR (Methylation %) SDHA promoter region (20 μM CA, 6 h): −37.82%
DMR (Methylation %) SDHB promoter region (20 μM CA, 6 h): −39.54%
DMR (Methylation %) SPHK2 promoter region (20 μM CA, 6 h): −60.87%
